Laboratory results from patent publication US20090325858A1, “Reduction of Zinc-Induced Neurotoxic Injury By Blockade of Nitric Oxide Synthesis” (ANDRO DIAGNOSTICS, INC., priority 2003, published 2009).
“Also recorded” adds a separate entry of the source.

Legend:
[1] = biological target: Zn^2+-bound CA (bovine CA I); details: cited from earlier work
hippocampal brain slice = assay: Zn2+ release into extracellular fluid of acute hippocampal brain slices, EnZin fluorescence; format: cell-based, rat; details: immediately after adding to hippocampal slice bath
Description: Experiments were performed on transverse hippocampal splices taken from 5 to 6 week-old male rats. In all, 41 hippocampal slices and 10 additional hippocampi taken directly from intact animals (“freshly frozen” see below) were studied quantitatively. After halothane (3.5%) inhalation in the anesthetic box, the rats were perfused with 4° C. artificial cerebrospinal fluid (ACSF) (NaCl was substituted by 190 mM sucrose) intracardially for 1 minute (76-77).
After perfusion, the rats were decapitated and the hippocampi were dissected out and placed in cold (4° C.) artificial cerebrospinal fluid. Transverse slice (400 μm) were cut with a vibratome (Campden Vibraslice, model # 752) and placed on a nylon mesh in an incubation chamber. […] The slices were kept at 20° C. in oxygenated (95% O2, 5% CO2) artificial cerebrospinal fluid for 30 minute before stimulation. The gas mixture was also bubbled through the water bath in the chamber and vented over the chamber for >30 minute before the experiment started. The standard artificial cerebrospinal fluid comprised 130 mM NaCl, 3.5 mM KCl, 1.25 mM NaH2PO4, 2 mM MgSO4, 2 mM CaCl2, 20 mM NaHCO3, 2 mM ascorbic acid and 10 mM D-glucose.
For measuring zinc release with EnZin, (apoCA+ABDN), the slices were epi-illuminated with 420 nm light and imaged through both 530 nm and 700 nm band pass filters. […] The ABDN is fluorescent at 600 nm when free, but fluoresces at 560 nm when bound to the Zn+CA (“holo” CA). Thus, the CA is the zinc detector, and the ABDN is the ratiometric fluorescent reporter. A variety of CA with different zinc affinities for different zinc measurement ranges can be generated (78).
The ratio of the 520/700 nm images were then calculated (Optimus), giving a ratiometric image of zinc concentration. In this fluorescence system, the affinity of the EnZin is so high (Kd=[…]) that it can be treated as infinite. With a stoichiometric excess of EnZin, the percent occupancy of the EnZin by Zn^2+ can be used as the modulator of fluorescence intensity. […]

[2] = test system: vesicular zinc in axonal boutons of the hippocampal formation; details: for vesicular zinc staining of boutons (qualitative): TSQ staining, 2 hr after infusion, hippocampal formation
Description: Adult Sprague-Dawley rats (male, 300-350 g) were anesthetized with halothane, and mounted in a stereotaxic instrument where a bone defect was opened after reflection of the scalp.
For measuring the normal concentration of vesicular zinc in the tissue after treatment with various nitric oxide generators, frozen tissue sections were cut in a closed-top cryostat at 30 μm (−14° C.). For whole brains, starting at 3.6 mm caudal to bregma, every 3rd section was saved until 5-10 sections were obtained. For tissue slices studied in vitro, every section was saved (typically 6-9 per brain slice). After cutting, the sections were thawed onto glass slides, dried, then stained with TSQ (80-82).
The sections were stained with TSQ, ((N-(6-methoxy-8-quinolyl)-para-1-toluenesulfonamide, Molecular Probes), as described previously (80) for fluorescence visualization of Zn^2+. Briefly, the frozen, unfixed sections were immersed in a solution of TSQ (4.5 μM) in 140 mM sodium barbital and 140 mM sodium acetate buffer (pH 10-10.5) for 60 seconds, rinsed for 60 seconds in normal saline (NaCl, 0.9%), then viewed and imaged in the microscope with no coverslip while still damp. A SPOT2 cooled CCD camera was used to capture the fluorescence images (10×n.a. 0.65) at 12 bit resolution for subsequent quantitation of zinc-TSQ fluorescence intensity. Control and treated tissues were always digitized in the same sitting to guard against sensitivity changes in the system.
Rats were anesthetized, a microsyringe and needle were lowered into the hippocampal formation or neocerebellar cortex by stereotaxis and then nitric oxide generators were infused into the tissue. After 120 minutes of survival, the rats were sacrificed and the brains were cut and stained to show the location and concentration of the weakly bound Zn^2+ that is normally sequestered in the presynaptic boutons, i.e., vesicular zinc. Zinc localization and quantification were determined by TSQ fluorescence staining.

[3] = test system: zinc-positive neurons in hilus and hippocampal cortex (CA3); assay: Traumatic brain injury plus hypoperfusion, number of zinc-stained neurons; format: in vivo, rat; details: for sparing in the number of zinc-injured (zinc-positive) neurons: trauma plus hypoperfusion
From the text: Male Sprague-Dawley rats weighing 350-400 g were anesthetized with isoflurane in an anesthetic chamber, intubated, and mechanically ventilated with 1.5-2.0% isoflurane in O2:room air (70:30) using a volume ventilator (EDCO Scientific, Chapel Hill, N.C.). Polyethylene cannulae were placed in both femoral arteries and one femoral vein for arterial pressure monitoring and hemorrhage and for drug infusion, respectively. Rectal and temporalis muscle temperatures were monitored using telethermometers (Yellow Springs Instruments, Yellow Springs, Ohio). Rectal temperature was maintained using a thermostatically controlled water blanket (Gaymar, Orchard Park, N.Y.).
Rats were prepared for parasagittal fluid-percussion traumatic brain injury (TBI) and for laser Doppler flowometry as described below. Intracranial pressure (ICP) was monitored continuously using a Camino probe (V420, Camino Laboratories, San Diego, Calif.) placed in a lateral ventricle through a small craniotomy placed posterior and lateral to the fluid percussion injury site. Isoflurane was lowered to 1.5%; the rats were connected to the trauma device, and subjected to moderate or severe traumatic brain injury.
After traumatic brain injury (or sham-TBI) blood was withdrawn from a catheter in a femoral artery to reduce MAP to 60 mmHg. Mean arterial pressure was maintained at 60 mmHg for 45 minutes during which time cerebral blood flow and ICP were measured. […] Post-resuscitation measurements were then performed. An arterial blood sample was withdrawn with each measurement series to determine PaCO2, PaO2, pH and hemoglobin concentration or hematocrit.
Fluid-percussion traumatic brain injury is a clinically relevant model that has been used in many studies of traumatic brain injury in cats, rats, and pigs (79, 82). The trauma device consists of a Plexiglas cylinder 60 cm long and 4.5 cm in diameter. One end of the device is connected to a hollow metal cylinder housing a pressure transducer (Statham PA856-100) and the other end is closed by a Plexiglas piston mounted on O-rings.
The piston is struck by a 4.8-kg steel pendulum dropped from a variable height, which determines the intensity of injury. The pressure pulse is recorded on a storage oscilloscope triggered photoelectrically by the descent of the pendulum. Sham-injured rats were connected to the trauma device but were not injured.
The effects of a moderate (2.0 atm) or severe (3.0 atm) levels of injury were studied. Moderate injury (2.1 atm) is associated with 10% mortality, reductions in EEG amplitude for 10 to 15 min, brief (<5 min) suppression of reflexes (corneal, pinna, paw flexion to pinch, righting), and return of spontaneous locomotion within 10 min. […]

zinc-positive neurons = assay: Pilocarpine-induced seizures, number of zinc-positive neurons; format: in vivo
hippocampal slice = assay: Zn2+ release from hippocampal slice in oxygen-glucose deprivation (OGD) and reperfusion, Newport Green; format: cell-based, rat; details: slices pretreated, 1 mM
From the text: In the in vitro model, the ischemia was translated to the hippocampal slice using the established oxygen-glucose deprivation (OGD) paradigm. Zinc in the extracellular fluids of the slice was monitored using membrane impermeable Newport Green as a sensor for Zn^2+ in the extracellular fluid as described herein. The release results paralleled the results obtained in vivo from the rabbits. Zinc was released into the extracellular fluid at the onset of OGD, then even more release was observed during reperfusion (FIG. 8).

## NS(=O)(=O)c1ccc(NCCO)c2nonc12 [ABDN]
[1]
  Kd: 45 µM

## CC(=O)N[C@H](C(=O)O)C(C)(C)SN=O [SNAP, S-nitroso-N-acetyl-L-penicillamine]
Hippocampal brain slice
  Zn^2+ fluorescence in the slice bath / extracellular fluid: rapid (within seconds) increase; also recorded: raised

## NCCCNCCCCN(CCCN)/[N+]([O-])=N/O [Spermine NO, Spermine-NONOate]
[2]
  vesicular zinc staining of boutons (qualitative): depletes zinc
[2]; quantitative microfluorimetric analysis, hilus, in vivo infusion
  vesicular zinc in the hilus reduced compared to control: about 60%
Hippocampal brain slice
  Zn^2+ fluorescence in the slice bath / extracellular fluid: rapid (within seconds) increase

## NCCCNCCCCNCCCN [Spermine]
[2]
  vesicular zinc staining of boutons (qualitative): unaffected
Hippocampal brain slice
  Zn^2+ fluorescence in the slice bath / extracellular fluid: no effect

## COC(=O)[C@@H](N)CCCNC(=N)N[N+](=O)[O-] [L-NAME, N(6)-nitro-L-arginine methyl ester]
[3]; TBI plus hypoperfusion, prior administration
  number of zinc-stained cells (qualitative): substantial reduction; also recorded: greatly reduces
[3]; blunt-trauma
  number of zinc-positive neurons after excitotoxic insult (qualitative): dramatically reduces
[3]; hilus
  sparing in the number of zinc-injured (zinc-positive) neurons: 50%
[3]; hippocampal cortex (CA3)
  sparing in the number of zinc-injured (zinc-positive) neurons: 50%
zinc-positive neurons
  number of zinc-positive neurons after excitotoxic insult (qualitative): dramatically reduces
Hippocampal slice
  Zn^2+ release into extracellular fluid after OGD and reperfusion: almost completely blocked
